According to ChEMBL document CHEMBL5365526 (J Med Chem, 2023):
Activity calls are given as the source filed them. The calls are words filed in the database; no cut-off is given here.

Columns and labels:
THP-1 = assay: Inhibition of M2 macrophage development in PMA-differentiated human THP-1 cells assessed as morphological alterations in macrophages at 0.5 uM incubated for 48 hrs by microscopic analysis; type: functional, cell-based
[1] = biological target: von Hippel-Lindau disease tumor suppressor/Serine/threonine-protein kinase DCLK1 (Homo sapiens) (UniProt O15075+P40337); assay: PROTAC activity at VHL/DCLK1 in human A-375 cells assessed as induction of DCLK1 degradation at 6 to 500 nM incubated for 12 hrs by western bot analysis; type: cell-based; details: dose 6-500 nM
[2] = biological target: T1, von Hippel-Lindau disease tumor suppressor/Mitogen-activated protein kinase 7 (Homo sapiens, UniProt Q13164+P40337); assay: PROTAC activity at VHL/ERK5 in human A-375 cells assessed as induction of ERK5 degradation at 1.1 microM incubated for 12 hrs by western blot analysis; type: cell-based
[3] = biological target: von Hippel-Lindau disease tumor suppressor/Leucine-rich repeat serine/threonine-protein kinase 2 (Homo sapiens) (UniProt Q5S007+P40337); assay: PROTAC activity at VHL/LRRK2 in human A-375 cells assessed as induction of LRRK2 degradation at 6 to 500 nM incubated for 12 hrs by western bot analysis; type: cell-based; details: dose 6-500 nM
[4] = biological target: T1, von Hippel-Lindau disease tumor suppressor/Mitogen-activated protein kinase 7; assay: PROTAC activity at VHL/ERK5 in human THP-1 cells assessed as decrease in IL-6 level at 0.5 uM incubated for 0.5 hrs followed by incubation with LPS for 24 hrs; type: cell-based; details: time 24.5 hrs
A-375 [5] = assay: Inhibition of cell colony formation in human A-375 cells at 0.5 uM cultured in 8% FBS and measured after 7 days in presence of LPS by crystal violet staining based analysis; type: functional; details: time 7.0 day
HCT-116 [6] = assay: Effect on GDC0994-induced antitumor activity against human HCT-116 cells assessed as reduction in cell viability at 200 nM incubated for 72 hrs by CCK8 assay; type: functional, cell-based
[7] = biological target: T1, von Hippel-Lindau disease tumor suppressor/Mitogen-activated protein kinase 7; assay: PROTAC activity at VHL/ERK5 in human THP-1 cells assessed as decrease in IL-10 level at 0.5 uM incubated for 0.5 hrs followed by incubation with LPS for 24 hrs; type: cell-based; details: time 24.5 hrs
[8] = biological target: T1, von Hippel-Lindau disease tumor suppressor/Mitogen-activated protein kinase 7; assay: PROTAC activity at VHL/ERK5 in human A-375 cells assessed as induction of ERK5 degradation at 200 nM pretreated for 1 hr with E3 ligase inhibitor, MLN4924 followed by incubation with compound for 12 hrs by western blot analysis; type: cell-based
[9] = biological target: T1, von Hippel-Lindau disease tumor suppressor/Mitogen-activated protein kinase 7; assay: PROTAC activity at VHL/ERK5 in human A-375 cells assessed as induction of ERK5 degradation at 200 nM incubated for 72 hrs by western blot analysis; type: cell-based
HCT-116 [10] = assay: Inhibition of M2 macrophage development in human HCT-116 cells assessed as inhibition of cell colony formation at 0.5 uM cultured in macrophage M0 medium and measured after 7 days in presence of LPS by crystal violet staining based analysis; type: functional; details: time 7.0 day
HepG2 = assay: Antiproliferative activity against human HepG2 cells assessed as reduction in cell viability incubated for 72 hrs by CCK8 assay; type: functional, cell-based
A-375 [11] = assay: Effect on cell migration in human A-375 cells at 0.01 to 1 uM incubated for 24 hrs by crystal violet staining based transwell assay; type: functional; details: dose 0.01-1 µM
HCT-116 [12] = assay: Inhibition of cell colony formation in human HCT-116 cells at 0.5 uM cultured in 8% FBS and measured after 7 days in presence of LPS by crystal violet staining based analysis; type: functional; details: time 7.0 day
A-375 [13] = assay: Inhibition of M2 macrophage development in human A-375 cells assessed as inhibition of cell colony formation at 0.5 uM cultured in macrophage M0 medium and measured after 7 days in presence of LPS by crystal violet staining based analysis; type: functional; details: time 7.0 day
MDA-MB-231 = assay: Antiproliferative activity against human MDA-MB-231 cells assessed as reduction in cell viability incubated for 72 hrs by CCK8 assay; type: functional, cell-based
[14] = biological target: Mitogen-activated protein kinase 7 (Homo sapiens, UniProt Q13164); assay: Inhibition of ERK5 (unknown origin) by ADP-Glo kinase assay
A-375 [15] = assay: Effect on mirdametinib-induced antitumor activity against human A-375 cells assessed as reduction in cell viability at 200 nM incubated for 72 hrs by CCK8 assay; type: functional, cell-based
[16] = biological target: T1, von Hippel-Lindau disease tumor suppressor/Mitogen-activated protein kinase 7; assay: PROTAC activity at VHL/ERK5 in human A-375 cells assessed as induction of ERK5 degradation at 200 nM pretreated for 1 hr with proteasome inhibitor, MG132 followed by incubation with compound for 12 hrs by western blot analysis; type: cell-based
[17] = biological target: T1, von Hippel-Lindau disease tumor suppressor/Mitogen-activated protein kinase 7; assay: PROTAC activity at VHL/ERK5 in human HCT-116 cells assessed as induction of ERK5 degradation at 200 nM incubated for 48 hrs by western blot analysis; type: cell-based
NCI-H1975 = assay: Antiproliferative activity against human NCI-H1975 cells assessed as reduction in cell viability incubated for 72 hrs by CCK8 assay; type: functional, cell-based
[18] = biological target: T1, von Hippel-Lindau disease tumor suppressor/Mitogen-activated protein kinase 7; assay: PROTAC activity at VHL/ERK5 in human A-375 cells assessed as induction of ERK5 degradation at 200 nM incubated for 2 to 4 hrs by western blot analysis; type: cell-based; details: time 2-4 hrs
HCT-116 [19] = assay: Effect on cell migration in human HCT-116 cells at 0.01 to 1 uM incubated for 24 hrs by crystal violet staining based transwell assay; type: functional; details: dose 0.01-1 µM
A-375 [20] = assay: Inhibition of M2 macrophage development in human A-375 cells assessed as inhibition of cell colony formation at 0.5 uM cultured in specific M2 medium and measured after 7 days in presence of LPS by crystal violet staining based analysis; type: functional; details: time 7.0 day
[21] = biological target: von Hippel-Lindau disease tumor suppressor/Bromodomain-containing protein 4 (Homo sapiens) (UniProt O60885+P40337); assay: PROTAC activity at VHL/BRD4 in human A-375 cells assessed as induction of BRD4 degradation at 6 to 500 nM incubated for 12 hrs by western bot analysis; type: cell-based; details: dose 6-500 nM
HCT-116 [22] = assay: Effect on dabrafenib-induced antitumor activity against human HCT-116 cells assessed as reduction in cell viability at 200 nM incubated for 72 hrs by CCK8 assay; type: functional, cell-based
[23] = biological target: T1, von Hippel-Lindau disease tumor suppressor/Mitogen-activated protein kinase 7; assay: PROTAC activity at VHL/ERK5 in human A-375 cells assessed as induction of ERK5 degradation at 200 nM incubated for 12 hrs by western blot analysis; type: cell-based
[24] = biological target: T1, von Hippel-Lindau disease tumor suppressor/Mitogen-activated protein kinase 7; assay: PROTAC activity at VHL/ERK5 in human NCI-H1975 cells assessed as maximal induction of ERK5 degradation incubated for 12 hrs by western blot analysis relative to control; type: cell-based
A-375 [25] = assay: Effect on dabrafenib-induced antitumor activity against human A-375 cells assessed as reduction in cell viability at 200 nM incubated for 72 hrs by CCK8 assay; type: functional, cell-based
PC-3 = assay: Antiproliferative activity against human PC-3 cells assessed as reduction in cell viability incubated for 72 hrs by CCK8 assay; type: functional, cell-based
[26] = biological target: T1, von Hippel-Lindau disease tumor suppressor/Mitogen-activated protein kinase 7; assay: PROTAC activity at VHL/ERK5 in human THP-1 cells assessed as induction of ERK5 degradation at 0.5 uM incubated for 0.5 hrs followed by incubation with LPS for 24 hrs by western blot analysis; type: cell-based; details: time 24.5 hrs
[27] = biological target: T1, von Hippel-Lindau disease tumor suppressor/Mitogen-activated protein kinase 7; assay: PROTAC activity at VHL/ERK5 in human PC-3 cells assessed as maximal induction of ERK5 degradation incubated for 12 hrs by western blot analysis relative to control; type: cell-based

T1 sequence (P40337 whole entry partner): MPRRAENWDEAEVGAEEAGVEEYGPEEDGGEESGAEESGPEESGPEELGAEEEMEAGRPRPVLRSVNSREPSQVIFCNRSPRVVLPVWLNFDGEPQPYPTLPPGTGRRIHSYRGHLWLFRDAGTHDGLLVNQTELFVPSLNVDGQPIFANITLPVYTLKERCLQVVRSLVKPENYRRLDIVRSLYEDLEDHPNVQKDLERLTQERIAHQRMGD
T1 sequence (Q13164 2-816 limits assumed): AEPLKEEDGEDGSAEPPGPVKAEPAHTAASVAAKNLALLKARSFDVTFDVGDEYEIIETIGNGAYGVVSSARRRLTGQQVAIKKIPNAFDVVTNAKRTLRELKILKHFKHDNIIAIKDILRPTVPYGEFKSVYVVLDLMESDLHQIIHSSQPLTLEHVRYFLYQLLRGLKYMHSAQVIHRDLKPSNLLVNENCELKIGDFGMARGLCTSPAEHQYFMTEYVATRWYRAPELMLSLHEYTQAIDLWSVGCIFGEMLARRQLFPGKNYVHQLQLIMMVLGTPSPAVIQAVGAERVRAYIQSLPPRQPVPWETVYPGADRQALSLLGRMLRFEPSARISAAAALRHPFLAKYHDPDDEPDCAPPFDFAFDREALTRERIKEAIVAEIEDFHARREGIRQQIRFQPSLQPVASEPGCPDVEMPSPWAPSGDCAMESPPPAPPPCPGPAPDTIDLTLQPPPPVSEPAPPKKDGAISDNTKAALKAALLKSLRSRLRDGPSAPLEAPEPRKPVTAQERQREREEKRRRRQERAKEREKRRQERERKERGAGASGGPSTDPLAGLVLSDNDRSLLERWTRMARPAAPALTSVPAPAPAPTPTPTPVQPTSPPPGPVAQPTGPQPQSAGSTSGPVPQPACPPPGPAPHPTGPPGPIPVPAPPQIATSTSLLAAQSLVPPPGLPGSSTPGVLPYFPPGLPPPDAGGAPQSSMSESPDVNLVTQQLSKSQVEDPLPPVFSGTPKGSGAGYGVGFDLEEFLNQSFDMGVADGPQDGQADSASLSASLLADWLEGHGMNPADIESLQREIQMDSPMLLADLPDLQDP
Chain of von Hippel-Lindau disease tumor suppressor/Serine/threonine-protein kinase DCLK1 (Homo sapiens) (O15075 whole entry, looked up): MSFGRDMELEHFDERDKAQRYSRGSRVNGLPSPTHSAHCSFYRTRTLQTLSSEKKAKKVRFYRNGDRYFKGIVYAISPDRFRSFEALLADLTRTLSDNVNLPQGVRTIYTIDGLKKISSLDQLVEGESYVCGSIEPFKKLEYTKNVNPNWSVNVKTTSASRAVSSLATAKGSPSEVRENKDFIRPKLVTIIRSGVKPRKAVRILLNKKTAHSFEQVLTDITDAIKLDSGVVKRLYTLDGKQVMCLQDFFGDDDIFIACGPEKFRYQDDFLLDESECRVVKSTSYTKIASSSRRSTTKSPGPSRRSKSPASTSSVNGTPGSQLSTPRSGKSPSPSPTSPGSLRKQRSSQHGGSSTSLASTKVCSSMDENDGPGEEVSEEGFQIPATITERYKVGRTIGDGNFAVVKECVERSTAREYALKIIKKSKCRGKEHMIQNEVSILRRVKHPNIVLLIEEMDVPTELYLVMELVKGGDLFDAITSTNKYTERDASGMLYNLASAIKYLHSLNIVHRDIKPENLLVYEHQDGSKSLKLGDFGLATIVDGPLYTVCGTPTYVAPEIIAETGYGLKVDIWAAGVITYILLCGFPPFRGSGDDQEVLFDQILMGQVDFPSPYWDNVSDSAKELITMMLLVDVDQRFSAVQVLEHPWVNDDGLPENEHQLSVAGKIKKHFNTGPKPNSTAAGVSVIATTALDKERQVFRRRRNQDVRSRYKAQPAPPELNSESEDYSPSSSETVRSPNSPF
Chain of von Hippel-Lindau disease tumor suppressor/Serine/threonine-protein kinase DCLK1 (Homo sapiens) (P40337 whole entry, looked up): as the sequence (P40337 whole entry partner) above
Chain of von Hippel-Lindau disease tumor suppressor/Bromodomain-containing protein 4 (Homo sapiens) (P40337 whole entry, looked up, other chains not shown): as the sequence (P40337 whole entry partner) above
Chain of von Hippel-Lindau disease tumor suppressor/Leucine-rich repeat serine/threonine-protein kinase 2 (Homo sapiens) (P40337 whole entry, looked up): as the sequence (P40337 whole entry partner) above
Chain of von Hippel-Lindau disease tumor suppressor/Leucine-rich repeat serine/threonine-protein kinase 2 (Homo sapiens) (Q5S007 whole entry, looked up): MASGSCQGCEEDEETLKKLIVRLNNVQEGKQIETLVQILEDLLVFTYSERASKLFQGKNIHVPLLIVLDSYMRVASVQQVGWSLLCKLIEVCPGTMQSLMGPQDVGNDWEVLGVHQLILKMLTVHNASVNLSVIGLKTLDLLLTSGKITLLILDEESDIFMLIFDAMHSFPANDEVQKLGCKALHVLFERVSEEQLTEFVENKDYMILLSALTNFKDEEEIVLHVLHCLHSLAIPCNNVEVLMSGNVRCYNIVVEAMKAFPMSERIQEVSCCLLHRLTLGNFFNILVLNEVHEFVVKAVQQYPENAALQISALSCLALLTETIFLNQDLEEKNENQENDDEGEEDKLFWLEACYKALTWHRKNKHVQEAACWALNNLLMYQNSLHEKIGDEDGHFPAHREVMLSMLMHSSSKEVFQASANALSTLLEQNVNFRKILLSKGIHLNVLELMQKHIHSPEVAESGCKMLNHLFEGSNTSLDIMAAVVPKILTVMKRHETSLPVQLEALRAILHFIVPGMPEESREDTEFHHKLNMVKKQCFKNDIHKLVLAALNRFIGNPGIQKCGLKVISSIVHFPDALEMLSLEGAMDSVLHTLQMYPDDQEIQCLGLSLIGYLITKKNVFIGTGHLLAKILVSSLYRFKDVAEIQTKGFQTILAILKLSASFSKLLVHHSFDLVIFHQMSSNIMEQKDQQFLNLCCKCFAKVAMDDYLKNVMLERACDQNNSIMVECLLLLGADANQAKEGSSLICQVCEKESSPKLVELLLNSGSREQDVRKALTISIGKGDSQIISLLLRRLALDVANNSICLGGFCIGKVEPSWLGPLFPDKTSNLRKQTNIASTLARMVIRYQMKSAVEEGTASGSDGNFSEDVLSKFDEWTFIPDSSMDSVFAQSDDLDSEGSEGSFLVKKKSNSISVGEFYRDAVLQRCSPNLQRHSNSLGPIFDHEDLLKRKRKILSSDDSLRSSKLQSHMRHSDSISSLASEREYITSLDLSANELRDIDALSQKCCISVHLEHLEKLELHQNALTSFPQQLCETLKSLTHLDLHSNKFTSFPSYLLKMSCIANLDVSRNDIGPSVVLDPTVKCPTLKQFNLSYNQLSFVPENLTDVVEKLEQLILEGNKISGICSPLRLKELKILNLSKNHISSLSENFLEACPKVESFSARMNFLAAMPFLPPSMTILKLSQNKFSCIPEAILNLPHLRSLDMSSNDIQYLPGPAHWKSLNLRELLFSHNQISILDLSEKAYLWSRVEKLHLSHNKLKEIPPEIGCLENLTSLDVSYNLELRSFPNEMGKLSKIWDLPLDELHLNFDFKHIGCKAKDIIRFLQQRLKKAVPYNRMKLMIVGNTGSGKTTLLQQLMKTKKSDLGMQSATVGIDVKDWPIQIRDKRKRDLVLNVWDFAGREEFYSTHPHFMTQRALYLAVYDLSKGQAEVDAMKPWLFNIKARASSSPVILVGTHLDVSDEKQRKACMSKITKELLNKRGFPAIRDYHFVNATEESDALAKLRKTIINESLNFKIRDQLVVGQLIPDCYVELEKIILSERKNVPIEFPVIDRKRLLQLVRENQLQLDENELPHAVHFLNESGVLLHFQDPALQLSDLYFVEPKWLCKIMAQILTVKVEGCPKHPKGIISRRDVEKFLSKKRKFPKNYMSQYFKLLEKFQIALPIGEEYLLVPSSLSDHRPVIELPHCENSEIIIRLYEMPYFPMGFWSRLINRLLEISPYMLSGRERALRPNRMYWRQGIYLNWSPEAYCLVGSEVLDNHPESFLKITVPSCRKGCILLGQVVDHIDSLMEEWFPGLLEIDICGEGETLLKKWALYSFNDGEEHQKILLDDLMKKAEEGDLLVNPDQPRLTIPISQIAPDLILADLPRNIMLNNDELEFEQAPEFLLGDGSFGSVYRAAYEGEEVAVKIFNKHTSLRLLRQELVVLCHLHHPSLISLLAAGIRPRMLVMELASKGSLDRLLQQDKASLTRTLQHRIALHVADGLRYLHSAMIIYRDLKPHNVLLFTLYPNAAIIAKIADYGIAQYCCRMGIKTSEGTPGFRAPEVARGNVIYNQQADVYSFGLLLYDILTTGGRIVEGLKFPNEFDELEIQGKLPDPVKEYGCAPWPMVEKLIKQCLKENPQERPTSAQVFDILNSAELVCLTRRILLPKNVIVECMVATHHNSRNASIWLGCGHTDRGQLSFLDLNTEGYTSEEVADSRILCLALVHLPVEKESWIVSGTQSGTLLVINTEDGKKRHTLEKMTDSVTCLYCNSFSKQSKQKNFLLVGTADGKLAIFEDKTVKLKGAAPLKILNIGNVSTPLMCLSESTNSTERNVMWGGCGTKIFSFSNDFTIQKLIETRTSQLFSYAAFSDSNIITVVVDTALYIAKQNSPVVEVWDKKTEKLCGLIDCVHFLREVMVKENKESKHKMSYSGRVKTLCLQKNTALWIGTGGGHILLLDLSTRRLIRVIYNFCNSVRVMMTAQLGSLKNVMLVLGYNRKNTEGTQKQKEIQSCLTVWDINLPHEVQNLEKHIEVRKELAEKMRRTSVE

In the case of `COc1cc(N2CCN(CCCCCCC(=O)N[C@H](C(=O)N3C[C@H](O)C[C@H]3C(=O)N[C@@H](C)c3ccc(-c4scnc4C)cc3)C(C)(C)C)CC2)ccc1Nc1ncc2c(n1)N(C)c1ccccc1C(=O)N2C`, the inhibition (THP-1) is reported as “Active”, the Activity [1] is reported as “inactive” and the Activity [2] is reported as “inactive”. For the same compound, the Activity [3] was “inactive”, the Activity [4] was “Active” and the inhibition (A-375 [5]) was “inactive”. The Activity (HCT-116 [6]) was “inactive”, the Activity [7] was “Active” and the Activity [8] was “inactive”. For the same compound, the Activity [9] was “Active”, the inhibition (HCT-116 [10]) was “Active” and the Activity (HepG2) was “inactive”. The Activity (A-375 [11]) was “inactive”, the inhibition (HCT-116 [12]) was “inactive” and the inhibition (A-375 [13]) was “Active”. For the same compound, the Activity (MDA-MB-231) was “inactive”, the IC50 [14] was 62.4 nM and the Activity (A-375 [15]) was “inactive”. For the same compound, the Activity [16] was “inactive”, the Activity [17] was “Active” and the Activity (NCI-H1975) was “inactive”. For the same compound, the Activity [18] was “Active”, the Activity (HCT-116 [19]) was “inactive” and the inhibition (A-375 [20]) was “Active”. For the same compound, the Activity [21] was “inactive”, the Activity (HCT-116 [22]) was “inactive” and the Activity [23] was “Active”. For the same compound, the Activity [24] was 94.7%, the Activity (A-375 [25]) was “inactive” and the Activity (PC-3) was “inactive”. For the same compound, the Activity [26] was “Active” and the Activity [27] was 89.4%.
